Measured values reported in publication PMC8777765, “Identification of Cyclic Sulfonamides with an N-Arylacetamide Group as α-Glucosidase and α-Amylase Inhibitors: Biological Evaluation and Molecular Modeling” (Pharmaceuticals, 2022).

Legend:
[1] = system: yeast α-glucosidase enzyme; experiment: in vitro α-glucosidase inhibition (PNPG substrate); type: biochemical, Saccharomyces cerevisiae; details: for IC50: PNPG substrate
Experimental: α-Glucosidase inhibitions were determined following a modified spectroscopic method [87]. A solution of α-glucosidase (obtained from Saccharomyces cerevisiae (Sigma-Aldrich, Munich, Germany)) was prepared in phosphate buffer (pH 6.8, 100 mM). Wells of the 96-well microliter plates were filled with test sample solutions (12.5 μL) prepared in DMSO. After this, enzyme (0.5 U/mL, 40 μL) and then phosphate buffer (100 mM, 120 μL) were also mixed with the test sample solutions. Incubation at 37 °C for 5 min and then addition of 40 μL of the substrate, p-nitrophenyl-α-D-glucopyranoside (PNPG) (5 nM, Sigma-Aldrich, Munich, Germany), was performed. Mixtures were again incubated for 30 min, and absorbance was measured at 405 nm and 37 °C for the released 4-nitrophenol in each mixture. […] Each experiment was carried out thrice, and percentage inhibitions were determined with the help of following expression, followed by the determination of IC50 values. % Inhibition = [(Acontrol − Asample)/Acontrol] × 100 where A is absorbance.

[2] = target: T1, Aspergillus oryzae α-amylase (Aspergillus oryzae, UniProt P0C1B3); experiment: in vitro α-amylase inhibition (starch substrate, DNSA); type: biochemical
T1 construct: purchased Sigma-Aldrich, Munich, Germany
Experimental: A total of 40 µL of each test sample was pipetted out in 96-well microliter plates. This was mixed with 40 µL of Aspergillus oryzae α-amylase (Sigma-Aldrich, Munich, Germany) solution (prepared in Na2SO4 buffer (0.02 M, pH = 6.9)). Incubation of solutions was executed at 37 °C for 10 min. After incubation, 40 µL of starch solution prepared in 1% DMSO was added into each well as a substrate and placed at 25 °C for 10 min. After this, 100 µL of 3,5-dinitrosalicylic acid (DNSA) was added and incubated for 5 min in boiling water. After cooling and dilution of mixtures with distilled water (400 μL), the absorbance was recorded at 540 nm wavelength [91] and 37 °C temperature with the help of a microplate reader. […] Each experiment was carried out thrice, and percentage inhibitions were determined with the help of following expression, followed by the determination of IC50 values. % Inhibition = [(Acontrol − Asample)/Acontrol] × 100 where A is absorbance.

[3] = target: α-glucosidase; design: method as in PMID 32024621; details: read-out: α-glucosidase IC50 (literature); cited from earlier work
[4] = target: aldose reductase; design: method as in PMID 22036211; details: cited from earlier work
[5] = system: severe acute respiratory syndrome coronavirus 2 (SARS-CoV-2); design: method as in PMID 33160024; details: cited from earlier work
[6] = target: human 11β-hydroxysteroid dehydrogenase type 1 (11β-HSD1); design: method as in PMID 21212546; details: cited from earlier work
[7] = target: α-glucosidase; experiment: enzyme inhibition kinetics (Lineweaver–Burk), α-glucosidase; type: biochemical, Saccharomyces cerevisiae; details: secondary plots; PNPG 1–9 mM; read-out: Ki (inhibition constant), α-glucosidase
Excerpt: (§1) The pattern of the Lineweaver–Burk plot can visualize the type of inhibition, as shown in Figure 6A−F. […] Secondary plots were drawn to determine the value of the inhibition constant Ki and the dissociation constant Ki’. Smaller Ki implies higher enzyme inhibition, implying the possibility of an allosteric binding site in the enzyme, to which synthetic drugs could bind.
(§2) The Lineweaver–Burk equation was used to determine the type of inhibition. α-Glucosidase and α-amylase activities were studied in the absence and presence of various sample concentrations (0.1 mM, 0.25 mM, 0.5 mM, 0.75 mM and 1.0 mM). For α-glucosidase inhibition kinetics, PNPG was used as a substrate, with different concentrations (1 mM, 3 mM, 5 mM, 7 mM and 9 mM). In α-amylase inhibition kinetics, various amounts of starch solution (0.25–2%) were tested. All experiments were carried out in triplicate, and the outcomes were written as mean ± S.D.

[8] = target: T2, α-amylase (Aspergillus oryzae, UniProt P0C1B3); experiment: enzyme inhibition kinetics (Lineweaver–Burk), α-amylase; type: biochemical; details: secondary plots; starch 0.25–2%; read-out: Ki (inhibition constant), α-amylase
T2 construct: purchased Sigma-Aldrich, Munich, Germany
Excerpt: as §1, §2

SMILES | α-glucosidase inhibition (in words) [1] | melting point [°C] | IC50 [2] [µM] | IC50 [1] [µM] | further results
COc1ccc(NC(=O)CN2C(C(=O)c3cccc(OC)c3)=C(O)c3ccccc3S2(=O)=O)cc1 [Compound 12m, 2-(4-Hydroxy-3-(3-methoxybenzoyl)-1,1-dioxido-2H-benzo[e][1,2]thiazin-2-yl)-N-(4-methoxyphenyl)acetamide] | failed to show any remarkable inhibition | 201 to 202 | 122 | – | –
C/C(=N\NC(=O)C1=C(O)c2ccccc2S(=O)(=O)N1)c1ccccc1 [Compound 6] | – | – | – | – | IC50 [3]: 3.9 µM
COc1cccc(C(=O)C2=C(O)c3ccccc3S(=O)(=O)N2)c1 [Compound 11, (4-Hydroxy-1,1-dioxido-2H-benzo[e][1,2]thiazin-3-yl)(3-methoxyphenyl)methanone] | failed to show any remarkable inhibition | – | 147 | – | –
COc1cccc(C(=O)C2=C(O)c3ccccc3S(=O)(=O)N2CC(=O)Nc2cccc(Cl)c2)c1 [Compound 12b, N-(3-Chlorophenyl)-2-(4-hydroxy-3-(3-methoxybenzoyl)-1,1-dioxido-2H-benzo[e][1,2]thiazin-2-yl)acetamide] | failed to show any remarkable inhibition | – | – | – | –
COc1cccc(C(=O)C2=C(O)c3ccccc3S(=O)(=O)N2CC(=O)Nc2cccc(Br)c2)c1 [Compound 12h, N-(3-Bromophenyl)-2-(4-hydroxy-3-(3-methoxybenzoyl)-1,1-dioxido-2H-benzo[e][1,2]thiazin-2-yl)acetamide] | – | 132 to 133 | 110 | 86.2 | –
COc1cccc(C(=O)C2=C(O)c3ccccc3S(=O)(=O)N2CC(=O)Nc2ccccc2[N+](=O)[O-])c1 [Compound 12d, 2-(4-Hydroxy-3-(3-methoxybenzoyl)-1,1-dioxido-2H-benzo[e][1,2]thiazin-2-yl)-N-(2-nitrophenyl)acetamide] | failed to show any remarkable inhibition | – | 15.1 | 102 | –
COc1cccc(C(=O)C2=C(O)c3ccccc3S(=O)(=O)N2CC(=O)Nc2ccc(Cl)cc2)c1 [Compound 12c, N-(4-Chlorophenyl)-2-(4-hydroxy-3-(3-methoxybenzoyl)-1,1-dioxido-2H-benzo[e][1,2]thiazin-2-yl)acetamide] | – | 146 to 147 | 125 | 40.8 | –
O=C(O)/C=C1\CN(Cc2ccc(Br)cc2F)S(=O)(=O)c2ccccc21 [Compound 5] | – | – | – | – | IC50 [4]: 0.11 µM
COc1cccc(C(=O)C2=C(O)c3ccccc3S(=O)(=O)N2CC(=O)Nc2ccc([N+](=O)[O-])cc2)c1 [Compound 12f, 2-(4-Hydroxy-3-(3-methoxybenzoyl)-1,1-dioxido-2H-benzo[e][1,2]thiazin-2-yl)-N-(4-nitrophenyl)acetamide] | – | 176 to 177 | 29 | 97 | –
COc1cccc(C(=O)C2=C(O)c3ccccc3S(=O)(=O)N2CC(=O)Nc2ccccc2OC)c1 [Compound 12l, 2-(4-Hydroxy-3-(3-methoxybenzoyl)-1,1-dioxido-2H-benzo[e][1,2]thiazin-2-yl)-N-(2-methoxyphenyl)acetamide] | failed to show any remarkable inhibition | – | – | 110 | –
COc1cccc(C(=O)C2=C(O)c3ccccc3S(=O)(=O)N2CC(=O)Nc2cccc(C)c2)c1 [Compound 12k, 2-(4-Hydroxy-3-(3-methoxybenzoyl)-1,1-dioxido-2H-benzo[e][1,2]thiazin-2-yl)-N-(m-tolyl)acetamide] | – | 150 to 151 | 67.2 | 30.4 | –
O=C(CN1C(C(=O)Nc2ccc(F)c(Cl)c2)=C(O)c2ccc(F)cc2S1(=O)=O)Nc1ccc(C(F)(F)F)cc1 [Compound 4] | – | – | – | – | IC50 [5]: 0.88 µM
COc1cccc(C(=O)C2=C(O)c3ccccc3S(=O)(=O)N2CC(=O)Nc2cccc([N+](=O)[O-])c2)c1 [Compound 12e, 2-(4-Hydroxy-3-(3-methoxybenzoyl)-1,1-dioxido-2H-benzo[e][1,2]thiazin-2-yl)-N-(3-nitrophenyl)acetamide] | failed to show any remarkable inhibition | 189 to 190 | 37.5 | – | –
C/C(=N\NC(=O)C1=C(O)c2ccccc2S(=O)(=O)N1C)c1ccccc1 [Compound 7] | – | – | – | – | IC50 [3]: 4.2 µM
O=C(CN1C(C(=O)Nc2ccccc2)=C(O)c2ccccc2S1(=O)=O)Nc1cccc(C(F)(F)F)c1 [Compound 3] | – | – | – | – | IC50 [6]: 0.041 µM
COc1cccc(C(=O)C2=C(O)c3ccccc3S(=O)(=O)N2CC(=O)Nc2ccccc2Br)c1 [Compound 12g, N-(2-Bromophenyl)-2-(4-hydroxy-3-(3-methoxybenzoyl)-1,1-dioxido-2H-benzo[e][1,2]thiazin-2-yl)acetamide] | – | 169 to 171 | 11.7 | 35.1 | –
COc1cccc(C(=O)C2=C(O)c3ccccc3S(=O)(=O)N2CC(=O)Nc2ccccc2Cl)c1 [Compound 12a, N-(2-Chlorophenyl)-2-(4-hydroxy-3-(3-methoxybenzoyl)-1,1-dioxido-2H-benzo[e][1,2]thiazin-2-yl)acetamide] | – | 186 to 187 | 13.3 | 46.2 | –
COc1cccc(C(=O)C2=C(O)c3ccccc3S(=O)(=O)N2CC(=O)Nc2ccccc2C)c1 [Compound 12j, 2-(4-Hydroxy-3-(3-methoxybenzoyl)-1,1-dioxido-2H-benzo[e][1,2]thiazin-2-yl)-N-(o-tolyl)acetamide] | failed to show any remarkable inhibition | 166 | – | – | –
COc1cccc(C(=O)C2=C(O)c3ccccc3S(=O)(=O)N2CC(=O)Nc2ccc(Br)cc2)c1 [Compound 12i, N-(4-Bromophenyl)-2-(4-hydroxy-3-(3-methoxybenzoyl)-1,1-dioxido-2H-benzo[e][1,2]thiazin-2-yl)acetamide] | – | – | 7.52 | 25.9 | Ki [7]: 100 µM; Ki [8]: 70.4 µM
